Earlier results as cited in patent US12440459B2, “Norepinephrine compositions and methods therefor” (Nevakar Injectables Inc., priority 2017, dated 2025).

Conditions: Int J Toxicol. 2002; 21 Suppl 2:19-94

## COc1ccc(O)c(C(C)(C)C)c1 [butylated hydroxyl anisole]
  renal and hepatic damage: some renal and hepatic damage
